From US20020137929A1, “1 - (3-heterocyclylphenyl) isothiourea, -isourea, -guanidine and -amidine herbicidal agents” (Intellectual Property Department, BASF Aktiengesellschaft, priority 1998, published 2002)

Assays:
[1] = test system: ECHORC (Watergrass (Calif.)); test: Postemergence weed control under flooded paddy conditions; type: in vivo, Echinochloa oryzoides; settings: postemergence weeds, 3-4 weeks after treatment
Outline: (§1)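 Injury ratings (0–9 scale covering stand, vigor, malformation, size, chlorosis and overall appearance versus control) were made three to four weeks after treatment. Test material, about 0.0313 to 0.500 kg/ha a.i. in 50/50 v/v aqueous/acetone, was added to flood water 1.5 to 3 cm deep over 3 to 5 cm weeds and 1.5 to 2.5 leaf rice.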

[2] = test system: TRZAWR (Wheat, Winter, cv Riband); test: Postemergence herbicidal evaluation; type: in vivo, Triticum aestivum
Outline: (§2)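 Seedlings grown about two weeks were sprayed at 40 psi with compound dispersed in 50/50 acetone/water plus 0.5% TWEEN 20, at about 0.0156 to 0.500 kg/ha. Plants were kept in the greenhouse and scored 4–5 weeks later on a 0–9 visual scale against untreated controls.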

ORYSAT (Rice, Tebonnet) = test: Preemergence herbicidal evaluation; type: in vivo, Oryza sativa, (L.) Tebonnet; settings: rated 4-5 weeks after treatment
Outline: (§3)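 Herbicidal effect scored visually, 0-9, at 4 to 5 weeks against a control; compound applied preemergence by aqueous acetone spray to seeded soil at about 0.0156 to 0.500 kg/ha.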

[3] = test system: TRZAWR (Wheat, Winter, cv Riband); test: Preemergence herbicidal evaluation; type: in vivo, Triticum aestivum; settings: rated 4-5 weeks after treatment
Outline: as §3

ECHCG (Barnyardgrass) = test: Preemergence herbicidal evaluation; type: in vivo, Echinochloa crus-galli; settings: rated 4-5 weeks after treatment
Outline: as §3

SETVI (Foxtail, Green) = test: Preemergence herbicidal evaluation; type: in vivo, Setaria viridis; settings: rated 4-5 weeks after treatment
Outline: as §3

MOOVA (Monochoria) = test: Preemergence weed control under flooded paddy conditions; type: in vivo, Monochoria vaginalis; settings: rated 3-4 weeks after treatment
Outline: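 Herbicidal effect is scored visually on a 0-9 scale against an untreated control, three to four weeks after compounds are pipetted into the flood water (1.5 to 3 cm deep) over seeds planted in silt loam at 0.5 cm depth. Rates: about 0.0313 to 0.500 kg/ha.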

CYPIR (Rice Flatsedge) = test: Postemergence weed control under flooded paddy conditions; type: in vivo, Cyperus iria; settings: postemergence weeds, 3-4 weeks after treatment
Outline: as §1

ABUTH (Velvetleaf) = test: Postemergence herbicidal evaluation; type: in vivo, Abutilon theophrasti
Outline: as §2

[4] = test system: IPOHE (Morningglory, Ivyleaf); test: Preemergence herbicidal evaluation; type: in vivo, Ipomoea hederacea; settings: rated 4-5 weeks after treatment
Outline: as §3

[5] = test system: ECHORC (Watergrass (Calif.)); test: Preemergence weed control under flooded paddy conditions; type: in vivo, Echinochloa oryzoides; settings: rated 3-4 weeks after treatment
Outline: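 Visual injury scored 0-9 against control three to four weeks post-treatment, greenhouse-grown. Application: acetone/water (50/50) solutions dosed directly into flood water (1.5-3 cm over silt loam, planted top 0.5 cm), roughly 0.0313 to 0.500 kg/ha active ingredient.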

[6] = test system: IPOHE (Morningglory, Ivyleaf); test: Postemergence herbicidal evaluation; type: in vivo, Ipomoea hederacea
Outline: as §2

[7] = test system: CHEAL (Lambsquarters, Common); test: Preemergence herbicidal evaluation; type: in vivo, Chenopodium album; settings: rated 4-5 weeks after treatment
Outline: as §3

C=CCN1C(=O)C(CC(=O)Nc2ccccc2)SC1=Nc1cc(-n2c(=O)cc(C(F)(F)F)n(C)c2=O)c(F)cc1Cl (stereo not shown) [Compound 44, 3-Allyl-2-{{2-chloro-5-[3,6-dihydro-3-methyl-2,6-dioxo-4-(trifluoromethyl)-1(2H)-pyrimidinyl]-4-fluorophenyl}imino}-4-oxo-5-thiazolidineacetanilide]
5.0: Herbicidal rating CYPIR (CYPIR (Rice Flatsedge); rate 0.0313 kg/ha) | Preemergence herbicidal rating CHEAL ([7]; rate 0.0313 kg/ha)
0.0: Preemergence herbicidal rating ORYSAT (ORYSAT (Rice, Tebonnet); rate 0.0156 kg/ha) | Preemergence herbicidal rating ORYSAT (ORYSAT (Rice, Tebonnet); rate 0.0313 kg/ha) | Preemergence herbicidal rating ORYSAT (ORYSAT (Rice, Tebonnet); rate 0.0625 kg/ha) | Preemergence herbicidal rating ORYSAT (ORYSAT (Rice, Tebonnet); rate 0.1250 kg/ha) | Preemergence herbicidal rating ORYSAT (ORYSAT (Rice, Tebonnet); rate 0.2500 kg/ha) | Preemergence herbicidal rating ORYSAT (ORYSAT (Rice, Tebonnet); rate 0.5000 kg/ha) | Preemergence herbicidal rating TRZAWR ([3]; rate 0.0156 kg/ha) | Preemergence herbicidal rating TRZAWR ([3]; rate 0.0313 kg/ha) | Preemergence herbicidal rating TRZAWR ([3]; rate 0.0625 kg/ha) | Preemergence herbicidal rating TRZAWR ([3]; rate 0.1250 kg/ha) | Preemergence herbicidal rating TRZAWR ([3]; rate 0.2500 kg/ha) | Preemergence herbicidal rating TRZAWR ([3]; rate 0.5000 kg/ha) | Preemergence herbicidal rating ECHCG (ECHCG (Barnyardgrass); rate 0.0156 kg/ha) | Preemergence herbicidal rating ECHCG (ECHCG (Barnyardgrass); rate 0.0313 kg/ha) | Preemergence herbicidal rating ECHCG (ECHCG (Barnyardgrass); rate 0.0625 kg/ha) | Preemergence herbicidal rating ECHCG (ECHCG (Barnyardgrass); rate 0.1250 kg/ha) | Preemergence herbicidal rating ECHCG (ECHCG (Barnyardgrass); rate 0.2500 kg/ha) | Preemergence herbicidal rating ECHCG (ECHCG (Barnyardgrass); rate 0.5000 kg/ha) | Preemergence herbicidal rating SETVI (SETVI (Foxtail, Green); rate 0.0156 kg/ha) | Preemergence herbicidal rating SETVI (SETVI (Foxtail, Green); rate 0.0313 kg/ha) | Preemergence herbicidal rating SETVI (SETVI (Foxtail, Green); rate 0.0625 kg/ha) | Preemergence herbicidal rating SETVI (SETVI (Foxtail, Green); rate 0.1250 kg/ha) | Preemergence herbicidal rating SETVI (SETVI (Foxtail, Green); rate 0.2500 kg/ha) | Preemergence herbicidal rating SETVI (SETVI (Foxtail, Green); rate 0.5000 kg/ha) | Preemergence herbicidal rating IPOHE ([4]; rate 0.0156 kg/ha) | Preemergence herbicidal rating IPOHE ([4]; rate 0.0313 kg/ha) | Preemergence herbicidal rating IPOHE ([4]; rate 0.0625 kg/ha) | Preemergence herbicidal rating IPOHE ([4]; rate 0.2500 kg/ha) | Preemergence herbicidal rating IPOHE ([4]; rate 0.5000 kg/ha)
1.0: Preemergence herbicidal rating IPOHE ([4]; rate 0.1250 kg/ha)
6.0: Herbicidal rating ECHORC ([1]; rate 0.0313 kg/ha) | Herbicidal rating ECHORC ([1]; rate 0.0625 kg/ha) | Herbicidal rating CYPIR (CYPIR (Rice Flatsedge); rate 0.0625 kg/ha) | Herbicidal rating CYPIR (CYPIR (Rice Flatsedge); rate 0.1250 kg/ha) | Herbicidal rating ECHORC ([5]; 0.0313 kg/ha) | Herbicidal rating ECHORC ([5]; 0.0625 kg/ha)
4.0: Postemergence herbicidal rating TRZAWR ([2]; Rate 0.0313 kg/ha) | Postemergence herbicidal rating TRZAWR ([2]; Rate 0.0625 kg/ha) | Postemergence herbicidal rating TRZAWR ([2]; Rate 0.1250 kg/ha) | Herbicidal rating MOOVA (MOOVA (Monochoria); 0.0313 kg/ha) | Herbicidal rating MOOVA (MOOVA (Monochoria); 0.0625 kg/ha) | Preemergence herbicidal rating CHEAL ([7]; rate 0.0625 kg/ha)
8.0: Herbicidal rating ECHORC ([1]; rate 0.2500 kg/ha) | Herbicidal rating ECHORC ([5]; 0.2500 kg/ha)
7.0: Herbicidal rating ECHORC ([1]; rate 0.1250 kg/ha) | Herbicidal rating MOOVA (MOOVA (Monochoria); 0.1250 kg/ha) | Postemergence herbicidal rating ABUTH (ABUTH (Velvetleaf); Rate 0.0313 kg/ha) | Herbicidal rating ECHORC ([5]; 0.1250 kg/ha)
9.0: Herbicidal rating MOOVA (MOOVA (Monochoria); 0.2500 kg/ha) | Herbicidal rating CYPIR (CYPIR (Rice Flatsedge); rate 0.2500 kg/ha) | Postemergence herbicidal rating ABUTH (ABUTH (Velvetleaf); Rate 0.0156 kg/ha) | Postemergence herbicidal rating ABUTH (ABUTH (Velvetleaf); Rate 0.0625 kg/ha) | Postemergence herbicidal rating ABUTH (ABUTH (Velvetleaf); Rate 0.1250 kg/ha) | Postemergence herbicidal rating IPOHE ([6]; Rate 0.0156 kg/ha) | Postemergence herbicidal rating IPOHE ([6]; Rate 0.0313 kg/ha) | Postemergence herbicidal rating IPOHE ([6]; Rate 0.0625 kg/ha) | Postemergence herbicidal rating IPOHE ([6]; Rate 0.1250 kg/ha) | Preemergence herbicidal rating CHEAL ([7]; rate 0.1250 kg/ha) | Preemergence herbicidal rating CHEAL ([7]; rate 0.2500 kg/ha) | Preemergence herbicidal rating CHEAL ([7]; rate 0.5000 kg/ha)
3.0: Postemergence herbicidal rating TRZAWR ([2]; Rate 0.0156 kg/ha) | Preemergence herbicidal rating CHEAL ([7]; rate 0.0156 kg/ha)
